The subject of data set [1] is myelomonocytic leukaemia (MV-4-11) cell line. Briefly: in vitro cytotoxicity, MTT assay, MV-4-11. In kind it is cell-based. On the procedure: (§1) The cytotoxicity of the investigated complexes 1–3 was determined by microculture with sulforhodamine B SRB (all adherent cells) and MTT ([3-(4,5-dimethyl(thiazol-2-yl) -2,5-diphenyltetrazoliumbromide)]) (for cells in suspension (leukemia cells)) assays with the following three tumor cell lines: colorectal adenoma (LoVo), myelomonocytic leukemia (MV-4-11), and breast adenocarcinoma (MCF-7), as well as a healthy mouse fibroblast (BALB/3T3) cell line. The cytotoxicity of the compounds was measured using the methods described previously. […] The results for cisplatin, used as a test control, were presented in the form of IC50 value (this is the concentration of the compound causing the inhibition of cell proliferation of 50% of the cell population). The results were calculated from 2 to 3 independent experiments.
A general note: Tetrazolium dyes change colour on reduction, which living cells bring about.

Data set [2] in a line: in vitro cytotoxicity, SRB assay, normal BALB/3T3. The data set is classed as cell-based, mouse. Conditions: mouse, BALB/3T3 normal mouse fibroblast cells; compound concentration 10 μg/mL; normal cell line. On the procedure: as §1
The test system of data set [3] is normal mouse fibroblast (BALB/3T3) cell line. Briefly: in vitro cytotoxicity, SRB assay, normal BALB/3T3. In kind it is cell-based. Conditions: for Cell viability [%] BALB/3T3: compound concentration 10 μg/mL, normal cell line. The procedure: as §1
The nature of data set [4]: lipophilicity (log P) determination. In kind it is physicochemical. On the procedure:
(§2) Determination of log P values, and studies on the interactions of ruthenium(II) (1), iridium(III) complexes (2, 3) with CT-DNA, HSA and GSH, were performed according to the previous procedure published in the paper.

The nature of data set [5]: glutathione deactivation experiment (Ellman method). Conditions: after 28 h incubation. In kind it is biochemical. On the procedure: as §2
Comparing similar data of cell viability and IC50 for both iridium(III) complexes with GSH deactivation results, some correlation was observed.

A further data set relates to CT-DNA. Briefly: DNA melting test by 3D CD. The data set is classed as binding. The settings on record: 100 μM CT-DNA, Tris-HCl/NaCl pH 7.2; free CT-DNA Tm 55.2 ± 0.7 °C. On the procedure:
The melting profiles of DNA/complex mixtures were recorded on a Jasco J-815 spectropolarimeter (Kettenbrückengasse, Austria) equipped with a CDF-426S/15 Peltier temperature controller. CD melting experiments were performed using 100 μM CT DNA concentration, in the absence and presence of 100 equivalents of complexes (in Tris-HCl/NaCl buffer, pH 7.2). CD melting were performed at 5 °C/min heating rate in the 35–95 °C temperature range. Each spectrum was recorded in the 220–300 nm wavelength range, averaged over three scans and subtracting the buffer baseline. After each temperature change, the system was left to equilibrate for 3 min. From 3D data, we selected the proper wavelength (256 nm) and obtained a classic 2D melting profile (fraction folded vs. temperature). The melting temperatures (Tm) were mathematically calculated by using the curve fitting function in Origin 2020 software (OriginLab, Northampton, MA, USA). Tm values represent the melting temperature of the DNA with and without complexes.
To solve the problem of the mode of iridium-DNA binding, covalent and non-covalent, DNA melting experiments were conducted. […] The Tm of the tested solution was determined as the transition midpoint of the melting curve by monitoring the maximum of the ellipticity and absorbance as a function of temperature ranging from 35 to 95 °C. […]

A short description of data set [6]: catalytic oxidation of NADH to NAD+ (UV-Vis). The data set is classed as biochemical. The settings on record: complex 1 µM, NADH 100 µM, 50% MeOH/50% H2O, 37 °C, 9 h. On the procedure: The reaction of analyzed complexes (1 µM) with NADH (100 µM) in 50% MeOH/50% H2O (V:V) was examined by UV-Vis spectroscopy at 37 °C after various time intervals (0.5–9 h). The turnover number (TON) was calculated from the difference in NADH concentration after 9 h divided by the concentration of analyzed iridium complexes. The concentration of NADH was obtained using the extinction coefficient ε339 = 6220 M^−1cm^−1.
Figure 12 UV-Vis spectra for the catalytic oxidation of NADH (100 μM) to NAD^+ in the presence of complexes (1 μM) over a 9 h period in 50% MeOH/50% H2O (V:V) (inset: wavelength absorbance changes from 315-360 nm).

For data set [7], the target named is T1, human serum albumin (HSA) (Homo sapiens, UniProt P02768).
T1 construct: purchased Sigma-Aldrich Chemie GmbH (Steinheim, Germany)
Nature of the data set: HSA binding by UV-Vis spectroscopy. The settings on record: HSA 2 × 10^−5 M in Tris-HCl/NaCl buffer. On the procedure: as §2
(§3) Because plasma albumins can interfere with anticancer compounds and change their biological activity, especially their cytotoxicity effectiveness, it is important to obtain insight into interactions of the analyzed complexes with HSA as a plasma protein. The UV-Vis spectra of HSA with increasing amounts of complexes show increasing of HSA absorbance without any shift (Figure 13 a–c). […] To detect any changes of the microenvironment or the conformations of HSA caused by the analyzed complexes, CD spectroscopy was used (Figure 13e,f). […] The noticeable, spectral changes indicate a partial unfolding of the protein structure, leading to the loss of its stability.
(§4) Figure 13 Changes in UV-Vis absorption spectra of HSA (2 × 10^−5 M) in Tris-HCl/NaCl buffer upon addition of 1 (a), 2 (b) and 3 (c) in different molar ratio and CD spectra of HSA incubated with 1 (d), 2 (e) and 3 (f) in different molar ratio.

Data set [8] addresses T1, human serum albumin (HSA). Nature of the data set: HSA conformation by CD spectroscopy. The data set is classed as binding. The settings on record: free HSA 56%. On the procedure: as §2, §3, §4
Data set [9] relates to breast adenocarcinoma (MCF-7) cell line. Nature of the data set: in vitro cytotoxicity, SRB assay, MCF-7. The data set is classed as cell-based. The settings on record: concentration of 10 μg/mL. The procedure: as §1
A general note: In SRB staining, fixed cells bind dye roughly in proportion to their protein.

Data set [10] has as its system normal mouse fibroblast (BALB/3T3) cell line. The settings on record: read-out: IC50 against normal BALB/3T3; cited from earlier work.
The test system of data set [11] is colorectal adenoma (LoVo) cell line. Nature of the data set: in vitro cytotoxicity, SRB assay, LoVo. The data set is classed as cell-based. Conditions: concentration of 10 μg/mL. The procedure: as §1
Setting [12] is: compound concentration 10 μg/mL.

In brackets after ≈: the same amount, converted by molar mass. Entries after “also recorded” stand apart in the source; their conditions may differ.

T1 sequence (P02768 25-609): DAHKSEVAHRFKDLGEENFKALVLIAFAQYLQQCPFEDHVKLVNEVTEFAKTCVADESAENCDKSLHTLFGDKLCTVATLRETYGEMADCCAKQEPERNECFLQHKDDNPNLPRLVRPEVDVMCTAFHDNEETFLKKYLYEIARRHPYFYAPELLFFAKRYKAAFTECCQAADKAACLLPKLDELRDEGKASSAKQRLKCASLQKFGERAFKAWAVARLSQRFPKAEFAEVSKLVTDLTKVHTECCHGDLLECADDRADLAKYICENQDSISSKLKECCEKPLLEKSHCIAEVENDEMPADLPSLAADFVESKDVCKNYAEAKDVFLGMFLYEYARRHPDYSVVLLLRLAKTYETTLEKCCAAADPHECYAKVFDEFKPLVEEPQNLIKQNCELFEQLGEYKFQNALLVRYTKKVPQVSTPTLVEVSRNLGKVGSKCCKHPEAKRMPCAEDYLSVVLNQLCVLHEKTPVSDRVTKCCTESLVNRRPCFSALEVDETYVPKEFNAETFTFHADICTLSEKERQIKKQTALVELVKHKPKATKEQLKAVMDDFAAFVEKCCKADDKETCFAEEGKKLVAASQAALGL

As for `N.N.[Cl][Pt][Cl]` [cisplatin, reference compound], the “IC50 against MV-4-11” value in data set [1] (MV-4-11 cell line) stood at 0.27 µg/mL.

`O=C(c1ccccn1)c1ccccn1` [py2CO, di-2-pyridylketone, reference compound]: the IC50 in data set [1] (Homo sapiens, MV4-11, MV-4-11 cell line, read-out: IC50 against MV-4-11) amounted to 62.9 µg/mL (≈ 341 µM). Besides, the viability (usually a per cent measure of how many cells are alive, often set against a control) at 10 µg/mL in data set [1] (Homo sapiens, MV4-11, compound concentration 10 μg/mL) stood at 98%; in data set [2] it was 95.5%.

Take NH4[IrCl4(py2CO)]·H2O [complex 3]: the “IC50 against MV-4-11” value in data set [1] (MV-4-11 cell line) was determined as 35.8 ± 13.9 µg/mL. Moreover, in data set [1] (setting [12]), the “Cell viability [%] MV-4-11” value worked out at 68%. Further, in data set [3], the “Cell viability [%] BALB/3T3” value is 98.6%. The “toxic effect against normal BALB/3T3” value in data set [3] (result in words) is listed as “without a toxic effect; also recorded: without any toxic effect”. The lipophilicity (log P) (commonly a log measure of how a compound divides between an organic and an aqueous phase) in data set [4] was −0.30 ± 0.05. In addition, the “concentration of unreacted GSH remaining” value in [5] came out at 37 µM. Besides, the “decrease of melting temperature (Tm) of CT-DNA” value in the data set with CT-DNA is about 8.5 °C. Besides, the “turnover number (TON)” value in [6] was found to be 4.8. The HSA binding constant in data set [7] is 6.54 × 10^4. The “α-helical structure of HSA under the influence of complex” value (shortened to “α-helical structure of HSA”) in data set [8] is on record as 55%.

As to [(η^5-Cp)IrCl(py2CO)]PF6 [complex 2], the “IC50 against MV-4-11” value in data set [1] (MV-4-11 cell line) is given as 40.2 µg/mL. For the same compound, the “Cell viability [%] MV-4-11” value in data set [1] (setting [12]) was 68%. Besides, the “Cell viability [%] BALB/3T3” value in data set [3] amounted to 100%. The “inhibition of cell proliferation, MCF-7” value in data set [9] was found to be 3.7%. Further, the “log P” value in data set [4] was −1.14 ± 0.06. In addition, in [5], the “concentration of unreacted GSH remaining” value worked out at 37 µM. The “decrease of melting temperature (Tm) of CT-DNA” value in the data set with CT-DNA was “approximately 0.5 °C”. Also, the “turnover number (TON)” value in [6] is 3.3. Further, in [7], the HSA binding constant was 1.52 × 10^5. Besides, in data set [8], the “α-helical structure of HSA” value was found to be 52%.

On to [(η^6-p-cymene)RuCl(2,2′-PyBIm)]PF6, for which, in data set [10], the IC50 is 43.7 µM.

In the case of “[(η^6-p-cymene)RuCl(py2CO)]PF6 [complex 1]”, the “IC50 against MV-4-11” value in [1] (MV-4-11 cell line) was found to be 49.8 µg/mL. Further, in data set [1] (setting [12]), the “Cell viability [%] MV-4-11” value turned out to be 83%. In addition, the “inhibition of cell proliferation, LoVo” value in data set [11] came out at 1.4%. Further, in data set [4], the “log P” value was −1.44 ± 0.11. For the same compound, in data set [7], the HSA binding constant is given as 3.22 × 10^5. Moreover, the “α-helical structure of HSA” value in data set [8] is 51%.
